This is an account of results in US20180049995A1, “HIF-2-ALPHA INHIBITOR POLYMORPHS” (PELOTON THERAPEUTICS, INC., priority 2015, published 2018).

What all share (type): physicochemical
Data set [1] in a line: Competitive slurries of Form A and Form B (XRPD). As for the experimental part:
Slurry experiments were performed at ambient, 40° C. and 60° C. temperatures using 2-propanol, tert-butyl methyl ether, toluene and ethanol as solvents.
Saturated solutions of 2-propanol, tert-butylmethyl ether, toluene and ethanol were prepared at ambient temperature. ca. 25 mg of Form A and Form B were weighed into a vial to create 50 mg 50:50 wt/wt mixture of the two batches. The appropriate solvent was added to the mixture and the resulting slurry was stirred for 48 h at ambient temperature, before the solid was analyzed by XRPD.
Saturated solutions of 2-propanol, tert-butylmethyl ether, toluene and ethanol were prepared at 40° C. ca. 25 mg of Form A and Form B were weighed into a vial to create 50 mg 50:50 wt/wt mixture of the two batches. The appropriate solvent was added to the mixture and the resulting slurry was stirred for 48 h at 40° C., before the solid was analyzed by XRPD.
Saturated solutions of 2-propanol, toluene and ethanol were prepared at 60° C. ca. 25 mg of Form A and Form B were weighed into a vial to create 50 mg 50:50 wt/wt mixture of the two batches. The appropriate solvent was added to the mixture and the resulting slurry was stirred for 48 h at 60° C., before the solid was analyzed by XRPD.

The nature of data set [2]: Solubility screen for Form A in organic solvents. Here is the method:
A solubility screen for Form A was conducted in 24 solvents. About 5 mg of Form A was placed in each of 24 vials and 5 volume aliquots of the appropriate solvent systems listed in Table 1 were added to the appropriate vial. Between each addition, the mixture was checked for dissolution by visual inspection, and if no dissolution was apparent, the mixture was heated to ca. 40° C. and checked again. This procedure was continued until dissolution was observed or until 100 volumes of solvent had been added.
Form A appeared to be highly soluble (above ˜100 mg/mL) in a number of solvents, […] diisopropyl ether, heptane and toluene. These solvents were identified as possible anti-solvents for the primary polymorph screen. Additional solvent/water mixtures suitable for freeze drying were tested.

The nature of data set [3]: 7-Day stability study (XRPD and HPLC after storage). As for the experimental part: The stability of Forms A and B were measured following storage for 7-days at ambient, 40° C./75% RH and 80° C. About 15 mg of Forms A and B were individually placed in each of 3 vials and stored uncapped for 7 days under the following conditions; ambient, 40° C./75% RH, 80° C. Following the 7 days, XRPD analysis was performed on each sample to determine its form and crystallinity and HPLC analysis was conducted to determine the sample purity.

Data set [4] can be described thus: Aqueous solubility (24 h mixing, filtrate by HPLC). The settings on record: thermodynamic from solid. As for the experimental part:
The aqueous solubility of several lots of Forms A and B were measured. […] The sample was filtered using a syringe filter and the filtrate was analyzed by HPLC to determine the solubility. The remaining solid was analysis by XRPD to determine its form and crystallinity. Solubility data for micronized materials was also collected. As noted in Table 3, slight variations in aqueous solubility were noted, particularly for the micronized samples.

Converted amounts (≈) assume the structure as drawn. Read-outs that look alike come from different tables or passages of the source.

With `CS(=O)(=O)c1ccc(Oc2cc(F)cc(C#N)c2)c2c1[C@H](O)C(F)(F)C2` (mixture of isomers) [50:50 wt/wt mixture, (S)-3-((2,2-difluoro-1-hydroxy-7-(methylsulfonyl)-2,3-dihydro-1H-inden-4-yl)oxy)-5-fluorobenzonitrile], the “Form by XRPD after competitive slurry” value in data set [1] (2-Propanol, 40° C., 48 h) is recorded as “Form B”; in data set [1] (2-Propanol, 60° C., 48 h, footnote: Primarily Form B), “Mixture^a”; in data set [1] (2-Propanol, Ambient, 48 h), “Form B”; in data set [1] (Ethanol, 40° C., 48 h), “Form B”; in data set [1] (Ethanol, 60° C., 48 h, footnote: primarily Form A with some Form B present), “Mixture^b”; in data set [1] (Ethanol, Ambient, 48 h) it was “Form B”. Also, the “Form by XRPD after competitive slurry” value in data set [1] (Ethanol, Repeat 60° C., only Form B observed) is recorded as “Form B^b”; in data set [1] (TBME, 40° C., 48 h), “Form B”; in data set [1] (TBME, Ambient, 48 h), “Form B”; in data set [1] (Toluene, 40° C., 48 h), “Form B”; in data set [1] (Toluene, 60° C., 48 h), “Form B”; in data set [1] (Toluene, Ambient, 48 h) it was “Form B”.

Broadly, the solubility is the dissolved amount per volume that the medium holds. In the case of `CS(=O)(=O)c1ccc(Oc2cc(F)cc(C#N)c2)c2c1[C@H](O)C(F)(F)C2` [Form A, (S)-3-((2,2-difluoro-1-hydroxy-7-(methylsulfonyl)-2,3-dihydro-1H-inden-4-yl)oxy)-5-fluorobenzonitrile], the solubility is more than 200 mg/mL in data set [2] (40 °C, organic solvent or mixture, thermodynamic from solid, 1,4-Dioxane, solubility observed at 40° C., read-out: Solubility); more than 200 mg/mL in data set [2] (40 °C, organic solvent or mixture, thermodynamic from solid, Acetonitrile, solubility observed at 40° C., read-out: Solubility); more than 2 mg/mL in data set [2] (40 °C, organic solvent or mixture, thermodynamic from solid, Diisopropyl ether, solubility observed at 40° C., read-out: Solubility); 160 mg/mL (≈ 417 mM) in data set [2] (40 °C, organic solvent or mixture, thermodynamic from solid, Methyl isobutyl ketone, solubility observed at 40° C., read-out: Solubility); less than 2 mg/mL in data set [2] (aqueous with cosolvent or surfactant or cyclodextrin, thermodynamic from solid, Acetone: Water (60%), read-out: Solubility); less than 2 mg/mL in data set [2] (aqueous with cosolvent or surfactant or cyclodextrin, thermodynamic from solid, Ethanol: Water (50%), read-out: Solubility). Further, the solubility in data set [2] (aqueous with cosolvent or surfactant or cyclodextrin, thermodynamic from solid, Methanol: Water (50%), read-out: Solubility) was less than 2 mg/mL; in data set [2] (aqueous with cosolvent or surfactant or cyclodextrin, thermodynamic from solid, THF: Water (50%), read-out: Solubility) it was 100 mg/mL (≈ 261 mM); in data set [2] (organic solvent or mixture, thermodynamic from solid, 2-Propanol, read-out: Solubility), 9 mg/mL (≈ 23.5 mM); in data set [2] (organic solvent or mixture, thermodynamic from solid, Acetone: Water (5%), read-out: Solubility), more than 200 mg/mL; in data set [2] (organic solvent or mixture, thermodynamic from solid, Acetone: Water (20%), read-out: Solubility) it was more than 200 mg/mL; in data set [2] (organic solvent or mixture, thermodynamic from solid, Acetone, read-out: Solubility) it was more than 200 mg/mL. Also, the solubility in data set [2] (organic solvent or mixture, thermodynamic from solid, Acetonitrile: Water (10%), read-out: Solubility) was more than 200 mg/mL; in data set [2] (organic solvent or mixture, thermodynamic from solid, Dichloromethane, read-out: Solubility), 80 mg/mL (≈ 209 mM); in data set [2] (organic solvent or mixture, thermodynamic from solid, Dimethylformamide, read-out: Solubility), more than 200 mg/mL; in data set [2] (organic solvent or mixture, thermodynamic from solid, Dimethylsulfoxide, read-out: Solubility) it was 160 mg/mL (≈ 417 mM); in data set [2] (organic solvent or mixture, thermodynamic from solid, Ethanol, read-out: Solubility), 60 mg/mL (≈ 157 mM); in data set [2] (organic solvent or mixture, thermodynamic from solid, Ethyl acetate, read-out: Solubility) it was 160 mg/mL (≈ 417 mM). Further, the solubility in data set [2] (organic solvent or mixture, thermodynamic from solid, Heptane, read-out: Solubility) is less than 2 mg/mL; in data set [2] (organic solvent or mixture, thermodynamic from solid, Isopropyl acetate, read-out: Solubility), 90 mg/mL (≈ 235 mM); in data set [2] (organic solvent or mixture, thermodynamic from solid, Methanol, read-out: Solubility), 90 mg/mL (≈ 235 mM); in data set [2] (organic solvent or mixture, thermodynamic from solid, Methyl acetate, read-out: Solubility), more than 200 mg/mL; in data set [2] (organic solvent or mixture, thermodynamic from solid, Methylethyl ketone, read-out: Solubility), more than 200 mg/mL; in data set [2] (organic solvent or mixture, thermodynamic from solid, N-Methyl-2-pyrrolidone, read-out: Solubility), 130 mg/mL (≈ 339 mM). Besides, the solubility in data set [2] (organic solvent or mixture, thermodynamic from solid, Tetrahydrofuran, read-out: Solubility) is more than 200 mg/mL; in data set [2] (organic solvent or mixture, thermodynamic from solid, Toluene, read-out: Solubility) it was more than 2 mg/mL; in data set [2] (organic solvent or mixture, thermodynamic from solid, in a number of solvents, read-out: Solubility (highly soluble)), more than 100 mg/mL; in data set [2] (organic solvent or mixture, thermodynamic from solid, tert-Butylmethyl ether, read-out: Solubility), 35 mg/mL (≈ 91.3 mM); in data set [2] (water, thermodynamic from solid, Water, read-out: Solubility) it was less than 2 mg/mL. Further, the Solubility in words result is “Sufficient solubility” in data set [2] (THF:Water (50%), separation into API-saturated THF layer and API-free aqueous layer observed); “insoluble” in data set [2] (water (hydrophobic behavior observed), diisopropyl ether, heptane and toluene). Besides, the Crystallinity after storage entry in data set [3] (7 days at 80° C.) is “appeared to lose crystallinity”. Also, the “Form change by XRPD after storage” value in data set [3] (7 days uncapped, ambient, 40° C./75% RH, 80° C.) is listed as “no signs of form change”. For the same molecule, the “Purity by HPLC after storage” value in data set [3] (7 days, over all three conditions (ambient, 40° C./75% RH, 80° C.)) was found to be 99.0%. For the same molecule, the solubility at 24 h in data set [4] (fassif, Fasted State Simulated Small Intestinal Fluid, read-out: Aqueous Solubility FaSSIF) is 0.063 mg/mL (≈ 0.164 mM); in data set [4] (fessif, Fed State Simulated Small Intestinal Fluid, read-out: Aqueous Solubility FeSSIF), 0.086 mg/mL (≈ 0.224 mM); in data set [4] (pH 1.2, simulated gastric fluid, pH 1.2, read-out: Aqueous Solubility pH 1.2), 0.029 mg/mL (≈ 0.0756 mM); in data set [4] (pH 6.5, aqueous buffer, pH 6.5, read-out: Aqueous Solubility pH 6.5), 0.025 mg/mL (≈ 0.0652 mM); in data set [4] (pH 7.4, aqueous buffer, pH 7.4, read-out: Aqueous Solubility pH 7.4) it was 0.026 mg/mL (≈ 0.0678 mM).

Turning to `CS(=O)(=O)c1ccc(Oc2cc(F)cc(C#N)c2)c2c1[C@H](O)C(F)(F)C2` [Form B, (S)-3-((2,2-difluoro-1-hydroxy-7-(methylsulfonyl)-2,3-dihydro-1H-inden-4-yl)oxy)-5-fluorobenzonitrile], in data set [1] (all solvents, ambient, 40° C. and 60° C.), the “Thermodynamic stability of the form (conclusion of competitive slurries)” value is “the most thermodynamically form”. Besides, the “Purity by HPLC after storage” value in data set [3] (7 days at 80° C., drop from 99.7%) turned out to be 99.3%. For the same molecule, the Crystallinity after storage entry in data set [3] (7 days, over the three conditions (ambient, 40° C./75% RH, 80° C.)) is “maintained crystallinity”.
